The data set in a line: Human HepG2 cell viability assay in 384 well format. It counts as toxicity, cell-based. Also on record: dose 125 nL, time 70.5 hour; concentration not given beside the values. The note with it: HepG2 cells, read-out: Inhibition.

The structures appear in SMILES notation.

`CC(=O)N1CCOC(c2c(C(=O)NCCN(C)C)sc3ccccc23)C1` (centres undefined): the cytotoxicity at 70.5 h was -7.61%.
As for `CCCn1cc(C(=O)N2CCCC2(C)c2nc(C)cc(C)n2)cn1` (centres undefined), the figure is -13.9%; as for `Cc1ccnn1CCNC(=O)C1CCN(S(=O)(=O)c2ccc(F)cc2)C1` (centres undefined), 6.47%.
As for `CCN1CCCC(O)(c2nc(C)c(CCOc3ccc(F)cc3)s2)CC1` (centres undefined), the figure is 13.4%.
As for `CN(C)S(=O)(=O)N1CCC(c2ccncc2)CC1`, the figure is -10.2%.
Take `CNc1nc(C2CCCN(C(=O)C(C)C)C2)nc2c1CN(C)CC2` (centres undefined): the cytotoxicity at 70.5 h was found to be 9.57%.
To `CN(C)S(=O)(=O)N1CCC(c2ccncn2)CC1` belongs -11.3%.
As for `Cc1nc(Nc2ncc(C)s2)cc(C2CCCN2S(C)(=O)=O)n1` (centres undefined), the figure is -13.7%; as for `CS(=O)(=O)N1CCCC1c1cccc(Nc2nccs2)n1` (centres undefined), 28.9%; as for `Cc1cnc2cc(C3CCN(C(=O)c4ccncc4)CC3)[nH]c2n1`, -12.8%.
To `CC1(C(=O)NC2CCCC2)CN(c2cnccn2)CCO1` (centres undefined) belongs -13.6%.
In the case of `COc1cccc([C@H]2CN(C(=O)c3ccccc3)[C@@H]3CCCN[C@H]23)c1`, the cytotoxicity at 70.5 h was 15.6%.
To `c1cnc(N2CCCC(c3cc4cccnc4[nH]3)C2)nc1` (centres undefined) belongs -8.49%.
To `COCc1ccc(C(=O)N2CCC(c3cc4ncc(C)nc4[nH]3)C2)cc1` (centres undefined) belongs -4.31%.
For the compound `c1cnc(N2CCC(c3cc4cccnc4[nH]3)CC2)nc1`, the cytotoxicity at 70.5 h is -5.37%.
For `O=C(c1cc[nH]n1)N1CCCC1c1cnccn1` (centres undefined), the cytotoxicity at 70.5 h was -10.5%.
As for `COCC(=O)N1CC(c2csc(NC(C)=O)n2)C1`, the figure is -3.83%.
To `CNC(=O)c1cn[nH]c1C1CCN(Cc2sccc2C)C1` (centres undefined) belongs -5.33%; to `CNC(=O)c1cn[nH]c1C1CCN(Cc2cccc(C)c2OC)C1` (centres undefined), -3.82%.
To `CN(C)c1nccc(C2CCN(C(=O)CO)CC2)n1` belongs 13.9%; to `CC(=O)N1CCN(CCOc2ccc(F)cc2)CC(C(N)=O)C1` (centres undefined), -9.44%.
Consider `Cc1c(CN2C[C@@H](O)[C@H](Oc3cccc(F)c3)C2)cnn1C`, for which the cytotoxicity at 70.5 h is -10.7%.
For the compound `CC1(C(=O)N2CCN(C3CCCC3)CC2)CNCCO1` (centres undefined), the cytotoxicity at 70.5 h is -7.45%.
Regarding `O=C(O)c1ccccc1CN1CCC(c2ccnc3ccnn23)CC1`, the cytotoxicity at 70.5 h is -4.52%.
As for `COC(=O)[C@H]1CN(C(=O)c2cscn2)C[C@@H]1c1ccc(F)cc1`, the figure is 0.296%; as for `COc1ccc(CC(=O)NC(C)c2nc3cccnc3n2C(C)C)cc1` (centres undefined), 2.45%; as for `CCc1c(C)noc1-c1cnc(NC2CC2)nc1-c1cnc(C)cn1`, -7.43%.
As for `Oc1ccc(C2Nc3ccccc3C3=NCCCN32)cc1` (centres undefined), the figure is -2.33%; as for `O=C(c1cc[nH]n1)N1CCCC1c1ccccn1` (centres undefined), -4.38%.
To `O=C(NC1CC1)C1(Cc2ccccc2-c2ccncc2)CCOCC1` belongs 7.42%; to `O=C(CCn1c(C(F)F)cc2cccnc21)NC1CC1`, -5.74%; to `Cc1cc2c(=O)n3c(nc2s1)CCN(C(=O)c1nn(C)cc1Cl)CC3`, -4.02%.
Take `CCn1cc(S(=O)(=O)NCC2(N3CCOCC3)CCCCC2)c(C)n1`: the cytotoxicity at 70.5 h was 28.1%.
To `CNC(=O)C1CNCCN1C(=O)c1ccc(C(F)(F)F)nc1C` (centres undefined) belongs -5.69%; to `CN1CCCc2cc(-c3cncn3CC(=O)NC(C)(C)C)ccc21`, -16.5%; to `CCOC(=O)c1n[nH]cc1-c1cncn1CCn1nc(C)c(C)c1C`, -6.65%.
As for `CCN1c2ccc(-c3cncn3CC(=O)NC(C)(C)C)cc2CC1C` (centres undefined), the figure is -7.81%; as for `C=C(C)CN1CCN(Cc2cnc(-c3ccccc3C)nc2)CC1`, 23.9%.
To `C=C(C)CN1CCN(Cc2cnc(-c3ccc(OC)cc3)nc2)CC1` belongs 9.18%.

Values taken from ChEMBL document CHEMBL3507680, “University of Dundee, Gates Library screen for HepG2 cell viability”.
